According to patent US20250320194A1, “PHARMACEUTICALLY ACCEPTABLE SALT AND CRYSTAL FORM OF FUSED PYRIDINE RING DERIVATIVE AND PREPARATION METHOD THEREFOR” (Jiangsu Hengrui Pharmaceuticals Co., Ltd., priority 2021, published 2025):

Tests used:
HIV-1 capsid protein = biological target: T1, HIV-1 capsid protein (Human immunodeficiency virus type 1 group M subtype B, UniProt P12493); assay: In vitro polymerization of HIV-1 capsid protein (HTRF, His-CA/GST-CA); assay type: biochemical, HIV-1 NL4-3
T1 construct: made in house
Text: • 1. MAb Anti GST-Eu cryptate (Cisbio) • 2. MAb Anti 6HIS-XL665 (Cisbio) • 3. His tag HIV-1 capsid protein (hereinafter referred to as His-CA) • 4. GST tag HIV-1 capsid protein (hereinafter referred to as GST-CA) • 5. 384-well unbound surface microplate, white (Corning) • 6. Microplate reader (BMG)
The HIV-1 capsid proteins aggregate spontaneously in high-salt solutions. Capsid protein derived from HIV-1 NL4-3 strains were separately tagged and expressed with 6His tag and GST tag, and purified. His-CA and GST-CA were mixed at high-salt concentrations, and the level of polymerization of capsid proteins was detected using GST antibody labeled with Eu3+-Cryptate (energy donor) and His antibody labeled with XL665 (energy acceptor). […]
His-CA was diluted to […] in a clean tube with protein diluent (50 mM Tris-HCl, pH 8.0, 50 mM NaCl, 0.4 mM MgCl2, 0.05% Triton X-100, 2% glycerol) while MAb Anti 6HIS-XL665 at a final concentration of 260 nM was added; GST-CA was diluted to 20 nM with protein diluent in another clean tube while MAb Anti GST-Eu cryptate at a final concentration of 3.33 nM was added and incubated on ice for half an hour. […] After incubation, the samples were excited with an excitation light at 337 nM, and signal values at 620 nM and 665 nM were collected for detection, wherein Ratio values=(665 nM/620 nM signal)*10000 was calculated according to the signal values. EC50 values for compounds were calculated using Graphpad Prism software based on each concentration of the compounds and the corresponding Ratio values.

[1] = Hygroscopicity of salt crystal forms (DVS, 25° C.); assay type: physicochemical; settings: for Hygroscopicity 0.0% RH-95.0% RH / Hygroscopicity 20.0% RH-80.0% RH: DVS, 25° C.; for Crystal form: after DVS
Procedure: The test adopts SMS DVS Advantage, at 25° C., with a humidity range of 0 to 95% and a step of 10%. The judgment standard is that the dM/dT of each gradient mass change is less than 0.002%, TMAX is 360 minutes, and the cycle is two times. • 5. Cation chromatography • Instrument model: DIONEX AQUION ion chromatograph, USA • Detection method: conductivity; separation column: IonPac CS16-CG16 • Eluent: MSA 20Mm • Flow rate: 1.0 ml/min • 6. Anion chromatography • Instrument model: DIONEX INTEGRION HPIC ion chromatograph, USA • Detection method: conductivity; separation column: DionexIonPac™-AS11-HC • Eluent: EGC-500-KOH • Flow rate: 1.5 ml/min
Using Surface Measurement Systems advantage, at 25° C., the humidity starts from 50%, the humidity range is 0% to 95%, the step is 10%. The judgment standard was that the dM/dT of each gradient mass change is less than 0.002%, TMAX360 min, and the cycle was two times. The hygroscopicity of different salt crystal forms of the compound of formula I was investigated respectively.

[2] = Long-term/accelerated stability; settings: for Purity %: 4° C.; for physical and chemical stability (conclusion): long-term accelerated stability conditions for 6 months
[3] = Stability under influencing factors (high temperature, high humidity, open, 30 days); settings: for physical and chemical stability (conclusion): 75% RH and 92.5% RH

Which results are given for CC(C)(C#Cc1nc([C@H](Cc2cc(F)cc(F)c2)NC(=O)Cn2nc(C(F)(F)F)c3c2C(F)(F)[C@@H]2C[C@H]32)c(-c2ccc(Cl)c3c(NS(C)(=O)=O)nn(CC(F)(F)F)c23)c2c1CCC2)S(C)(=O)=O (atropisomer, axis not shown; (aR)) [The compound of formula (I), N—((S)-1-((R)-4-(4-chloro-3-(methanesulfonamide)-1-(2,2,2-trifluoroethyl)-1H-indazol-7-yl)-1-(3-methyl-3-(methylsulfonyl)but-1-yn-1-yl)-6,7-dihydro-5H-cyclopenta[c]pyridin-3-yl)-2-(3,5-difluorophenyl)ethyl)-2-((3bS,4aR)-5,5-difluoro-3-(trifluoromethyl)-3b,4,4a,5-tetrahydro-1H-cyclopropa[3,4]cyclopenta[1,2-c]pyrazol-1-yl)acetamide]?
EC50 (HIV-1 capsid protein): 9 nM; Emax (HIV-1 capsid protein): 100%; inhibition effect on the polymerization of HIV-1 capsid proteins (HIV-1 capsid protein; conclusion in words): significant inhibition effect

Which results are given for CC(C)(C#Cc1nc(C(Cc2cc(F)cc(F)c2)NC(=O)Cn2nc(C(F)(F)F)c3c2C(F)(F)C2CC32)c(-c2ccc(Cl)c3c([N-]S(C)(=O)=O)nn(CC(F)(F)F)c23)c2c1CCC2)S(C)(=O)=O.[Na+] (centres unmarked) [Crystal form III of the sodium salt]?
Hygroscopicity 0.0% RH-95.0% RH [1]: 2.04%; Hygroscopicity 20.0% RH-80.0% RH [1]: 0.73%; Crystal form [1]: Unchanged; Purity % ([2]; 1 month): 98.25%; Purity % ([2]; 2 months): 98.26%; Purity % ([2]; 3 months): 98.24%; Purity % ([2]; 6 months): 98.28%; Purity % ([2]; Start): 98.32%; physical and chemical stability (conclusion) [2]: good physical and chemical stability; physical and chemical stability (conclusion) ([3]; 40° C., 60° C.): good physical and chemical stability; Color, properties ([3]; 40° C., 5 days): White solid; Crystal form ([3]; 40° C., 5 days): Unchanged; Purity % ([3]; 40° C., 5 days): 97.98%; Color, properties ([3]; 40° C., 10 days): White solid; Crystal form ([3]; 40° C., 10 days): Unchanged; Purity % ([3]; 40° C., 10 days): 98.10%; Color, properties ([3]; 40° C., 30 days): White solid; Crystal form ([3]; 40° C., 30 days): Unchanged; Purity % ([3]; 40° C., 30 days): 98.06%; Color, properties ([3]; 60° C., 5 days): White solid; Crystal form ([3]; 60° C., 5 days): Unchanged; Purity % ([3]; 60° C., 5 days): 98.05%; Color, properties ([3]; 60° C., 10 days): White solid; Crystal form ([3]; 60° C., 10 days): Unchanged; Purity % ([3]; 60° C., 10 days): 98.08%; Color, properties ([3]; 60° C., 30 days): White solid; Crystal form ([3]; 60° C., 30 days): Unchanged; Purity % ([3]; 60° C., 30 days): 97.99%; Color, properties ([3]; 75% RH, 5 days): White solid; Crystal form ([3]; 75% RH, 5 days): Unchanged; Purity % ([3]; 75% RH, 5 days): 98.08%; Color, properties ([3]; 75% RH, 10 days): White solid; Crystal form ([3]; 75% RH, 10 days): Unchanged; Purity % ([3]; 75% RH, 10 days): 98.10%; Color, properties ([3]; 75% RH, 30 days): White solid; Crystal form ([3]; 75% RH, 30 days): Unchanged; Purity % ([3]; 75% RH, 30 days): 98.00%; Color, properties ([3]; 92.5% RH, 5 days): White solid; Crystal form ([3]; 92.5% RH, 5 days): Unchanged; Purity % ([3]; 92.5% RH, 5 days): 97.94%; Color, properties ([3]; 92.5% RH, 10 days): White solid; Crystal form ([3]; 92.5% RH, 10 days): Unchanged; Purity % ([3]; 92.5% RH, 10 days): 97.94%; Color, properties ([3]; 92.5% RH, 30 days): White solid; Crystal form ([3]; 92.5% RH, 30 days): Unchanged; Purity % ([3]; 92.5% RH, 30 days): 97.89%; Color, properties ([3]; Start, 0 days): White solid; Purity % ([3]; Start, 0 days): 98.23%

With CC(C)(C#Cc1nc(C(Cc2cc(F)cc(F)c2)NC(=O)Cn2nc(C(F)(F)F)c3c2C(F)(F)C2CC32)c(-c2ccc(Cl)c3c([N-]S(C)(=O)=O)nn(CC(F)(F)F)c23)c2c1CCC2)S(C)(=O)=O.[K+] (centres unmarked) [Crystal form a of the potassium salt] as the molecule, how does the “Hygroscopicity 0.0% RH-95.0% RH” value [1] read?
The value was 8.77%.

What about the “Hygroscopicity 20.0% RH-80.0% RH” value [1] of the same molecule?
Its value is 2.86%.

And the Crystal form [1]?
The Crystal form was “Unchanged”.

And the Crystal form ([2]; 40° C., 75% RH)?
Its Crystal form is “Deliquesce”.

And the “physical and chemical stability (conclusion)” value [2]?
The value was “good physical and chemical stability”.

And the “physical and chemical stability (conclusion)” value ([3]; 40° C., 60° C.)?
The value was “good physical and chemical stability”.

And the “Color, properties” value ([3]; 40° C., 5 days)?
The value was “White solid”.

And the Crystal form ([3]; 40° C., 5 days)?
The Crystal form was “Unchanged”.

And the Purity % ([3]; 40° C., 5 days)?
The Purity % was 97.97%.

What about the “Color, properties” value ([3]; 40° C., 10 days) of the same molecule?
Its value is “White solid”.

What about the Crystal form ([3]; 40° C., 10 days) of the same molecule?
The Crystal form was “Unchanged”.

And the Purity % ([3]; 40° C., 10 days)?
The Purity % was 98.04%.

And the “Color, properties” value ([3]; 40° C., 30 days)?
Its value is “White solid”.

What about the Crystal form ([3]; 40° C., 30 days) of the same molecule?
Its Crystal form is “Unchanged”.

What about the Purity % ([3]; 40° C., 30 days) of the same molecule?
Its Purity % is 97.96%.

What about the “Color, properties” value ([3]; 60° C., 5 days) of the same molecule?
The value was “White solid”.

And the Crystal form ([3]; 60° C., 5 days)?
Its Crystal form is “Unchanged”.

And the Purity % ([3]; 60° C., 5 days)?
The Purity % was 98.01%.

And the “Color, properties” value ([3]; 60° C., 10 days)?
Its value is “White solid”.

And the Crystal form ([3]; 60° C., 10 days)?
The Crystal form was “Unchanged”.

And the Purity % ([3]; 60° C., 10 days)?
Its Purity % is 98.01%.

And the “Color, properties” value ([3]; 60° C., 30 days)?
The value was “White solid”.

And the Crystal form ([3]; 60° C., 30 days)?
The Crystal form was “Unchanged”.

And the Purity % ([3]; 60° C., 30 days)?
The Purity % was 97.82%.

What about the “Color, properties” value ([3]; 75% RH, 5 days) of the same molecule?
Its value is “White solid”.

And the Crystal form ([3]; 75% RH, 5 days)?
The Crystal form was “Unchanged”.

What about the Purity % ([3]; 75% RH, 5 days) of the same molecule?
Its Purity % is 97.96%.

And the “Color, properties” value ([3]; 75% RH, 10 days)?
Its value is “White solid”.

And the Crystal form ([3]; 75% RH, 10 days)?
Its Crystal form is “Unchanged”.

And the Purity % ([3]; 75% RH, 10 days)?
The Purity % was 98.04%.

And the “Color, properties” value ([3]; 75% RH, 30 days)?
Its value is “White solid”.

What about the Crystal form ([3]; 75% RH, 30 days) of the same molecule?
Its Crystal form is “Unchanged”.

And the Purity % ([3]; 75% RH, 30 days)?
The Purity % was 98.02%.

What about the “Color, properties” value ([3]; 92.5% RH, 5 days) of the same molecule?
The value was “White solid”.

And the Crystal form ([3]; 92.5% RH, 5 days)?
Its Crystal form is “Unchanged”.

What about the Purity % ([3]; 92.5% RH, 5 days) of the same molecule?
Its Purity % is 97.96%.

And the “Color, properties” value ([3]; 92.5% RH, 10 days)?
The value was “White solid”.

What about the Crystal form ([3]; 92.5% RH, 10 days) of the same molecule?
Its Crystal form is “Unchanged”.

And the Purity % ([3]; 92.5% RH, 10 days)?
Its Purity % is 98.04%.

And the “Color, properties” value ([3]; 92.5% RH, 30 days)?
The value was “White solid”.

What about the Crystal form ([3]; 92.5% RH, 30 days) of the same molecule?
The Crystal form was “Unchanged”.

And the Purity % ([3]; 92.5% RH, 30 days)?
The Purity % was 98.02%.

What about the “Color, properties” value ([3]; Start, 0 days) of the same molecule?
Its value is “White solid”.

What about the Purity % ([3]; Start, 0 days) of the same molecule?
The Purity % was 98.03%.
